Where a name gives a salt, the structure may show the parent alone.
Columns and labels:
[1] = molecular target: Syk (356-635 amino acids) catalytic domain (Homo sapiens (Human), UniProt P43405); assay: Inhibition of enzymatic Syk kinase activity (radiometric); type: biochemical; conditions: read-out: IC50 Syk
Method in brief: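 Radiometric filter-binding format: 32P transfer from γ-32P-ATP onto pG4T, scintillation-counted after acid washes of P81 paper. Syk kinase domain (356-635), 0.035–7.5 ng per reaction, was exposed to compound for 30 minutes at room temperature before a 10-minute, 30° C. reaction with ATP (100 μM stock). Inhibition derived from counts with versus without compound.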

[2] = molecular target: JAK2 (Homo sapiens (Human), UniProt O60674); assay: Inhibition of enzymatic JAK2 kinase activity (TR-FRET); type: biochemical; conditions: read-out: IC50 JAK
JAK2, sequence (O60674 808-1132): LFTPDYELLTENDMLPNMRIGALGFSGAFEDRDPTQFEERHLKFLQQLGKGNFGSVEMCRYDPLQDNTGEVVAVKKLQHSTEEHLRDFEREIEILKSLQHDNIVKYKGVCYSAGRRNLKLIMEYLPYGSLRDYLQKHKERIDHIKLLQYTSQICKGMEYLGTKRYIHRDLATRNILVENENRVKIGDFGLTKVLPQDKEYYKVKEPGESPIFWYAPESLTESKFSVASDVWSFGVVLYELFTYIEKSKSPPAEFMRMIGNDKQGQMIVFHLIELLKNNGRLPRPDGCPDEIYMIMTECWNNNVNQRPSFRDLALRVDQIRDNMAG
Method in brief: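 TR-FRET read-out (Eu antibody donor, Ulight poly Glu-Tyr acceptor, 665/615 nm ratio) after a 60 min RT kinase reaction with ATP, begun following 30 min compound–enzyme preincubation. Stopped by EDTA; inhibition expressed as 100 minus % activity of positive control.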

Row | Structure (SMILES) | IC50 [1] [nM] | IC50 [2] [nM]
1 | CC1CCN(c2nc(Nc3ccc(OCCN4CCNCC4)cc3)c3c(=O)[nH]ncc3n2)CC1 [Example 156, 2-(4-methylpiperidin-1-yl)-4-((4-(2-(piperazin-1-yl)ethoxy)phenyl)amino) pyrimido[4,5-d]pyridazin-5(6H)-one hydrochloride] | < 50 | < 100
2 | O=C1CN(c2ccc(Nc3nc(N4CCCCCC4)nc4cn[nH]c(=O)c34)cc2)CCN1 [Example 165, 2-(azepan-1-yl)-4-((4-(3-oxopiperazin-1-yl)phenyl)amino)pyrimido[4,5-d]pyridazin-5(6H)-one] | < 100 | < 10
3 | CN(C)CCOc1ccc(Nc2nc(N3CCCCCC3)nc3cn[nH]c(=O)c23)cc1 [Example 167, 2-(azepan-1-yl)-4-((4-(2-(dimethylamino)ethoxy)phenyl)amino)pyrimido[4,5-d]pyridazin-5(6H)-one] | < 50 | < 10
4 | CC(C)N(CCOc1ccc(Nc2nc(N3CCCCCC3)nc3cn[nH]c(=O)c23)cc1)C(C)C [Example 188, 2-(azepan-1-yl)-4-((4-(2-(diisopropylamino)ethoxy)phenyl)amino) pyrimido[4,5-d]pyridazin-5(6H)-one] | < 50 | < 50
5 | CCN1CCN(CCc2ccc(Nc3nc(N4CCC(CC#N)CC4)nc4cn[nH]c(=O)c34)cc2)CC1 [Example 197, 2-(1-(4-((4-(2-(4-ethylpiperazin-1-yl)ethyl)phenyl)amino)-5-oxo-5,6-dihydropyrimido[4,5-d]pyridazin-2-yl)piperidin-4-yl)acetonitrile] | < 10 | < 10
6 | O=c1[nH]ncc2nc(N3CCCCCC3)nc(Nc3ccc(N4CCC(CO)CC4)cc3)c12 [Example 202, 2-(azepan-1-yl)-4-((4-(4-(hydroxymethyl)piperidin-1-yl)phenyl)amino) pyrimido[4,5-d]pyridazin-5(6H)-one] | < 50 | < 10
7 | O=c1[nH]ncc2nc(N3CCCCCC3)nc(Nc3ccc(OCCN4CCC(CO)CC4)cc3)c12 [Example 203, 2-(azepan-1-yl)-4-((4-(2-(4-(hydroxymethyl)piperidin-1-yl)ethoxy)phenyl)amino)pyrimido[4,5-d]pyridazin-5(6H)-one] | < 50 | < 10
8 | O=c1[nH]ncc2nc(N3CCCCCC3)nc(Nc3ccc(N4CCNCC4)nc3)c12 [Example 221, 2-(azepan-1-yl)-4-((6-(piperazin-1-yl)pyridin-3-yl)amino)pyrimido[4,5-d]pyridazin-5(6H)-one] | < 50 | < 10
9 | CC(C)(O)C(=O)N1CCN(c2ccc(Nc3nc(N4CCC(CC#N)CC4)nc4cn[nH]c(=O)c34)cc2)CC1 [Example 223, 2-(1-(4-((4-(4-(2-hydroxy-2-methylpropanoyl)piperazin-1-yl)phenyl)amino)-5-oxo-5,6-dihydropyrimido[4,5-d]pyridazin-2-yl)piperidin-4-yl) acetonitrile] | < 10 | < 10
10 | CCN(CC)CCOc1ccc(Nc2nc(N3CCC(CC#N)CC3)nc3cn[nH]c(=O)c23)cc1 [Example 224, 2-(1-(4-((4-(2-(diethylamino)ethoxy)phenyl)amino)-5-oxo-5,6-dihydropyrimido[4,5-d]pyridazin-2-yl)piperidin-4-yl)acetonitrile] | < 50 | < 50
11 | N#CCC(=O)N1CCN(c2ccc(Nc3nc(N4CCCCCC4)nc4cn[nH]c(=O)c34)cn2)CC1 [Example 234, 3-(4-(5-((2-(azepan-1-yl)-5-oxo-5,6-dihydropyrimido[4,5-d]pyridazin-4-yl)amino)pyridin-2-yl)piperazin-1-yl)-3-oxopropanenitrile] | < 50 | < 10
12 | O=c1[nH]ncc2nc(N3CCCCCC3)nc(Nc3ccc(N4CCC(CCO)CC4)nc3)c12 [Example 236, 2-(azepan-1-yl)-4-((6-(4-(2-hydroxyethyl)piperidin-1-yl)pyridin-3-yl)amino) pyrimido[4,5-d]pyridazin-5(6H)-one] | < 100 | < 50

Continued, values first:

Row | IC50 [1] [nM] | IC50 [2] [nM] | Structure (SMILES)
13 | < 50 | < 50 | O=c1[nH]ncc2nc(N3CCCCCC3)nc(Nc3ccc(OCCC4CCNCC4)cc3)c12 [Example 168, 2-(azepan-1-yl)-4-((4-(2-(piperidin-4-yl)ethoxy)phenyl)amino)pyrimido[4,5-d]pyridazin-5(6H)-one]
14 | > 100 | > 100 | O=c1[nH]ncc2nc(N3CCCCC3)nc(Nc3ccc(OCCN4CCNCC4)nc3)c12 [Example 181, 4-((6-(2-(piperazin-1-yl)ethoxy)pyridin-3-yl)amino)-2-(piperidin-1-yl)pyrimido[4,5-d]pyridazin-5(6H)-one]
15 | < 100 | < 10 | O=c1[nH]ncc2nc(N3CCCCCC3)nc(Nc3ccc(OCCN4CCNCC4)nc3)c12 [Example 182, 2-(azepan-1-yl)-4-((6-(2-(piperazin-1-yl)ethoxy)pyridin-3-yl)amino)pyrimido[4,5-d]pyridazin-5(6H)-one]
16 | < 10 | < 10 | O=c1[nH]ncc2nc(N3CCCCCC3)nc(Nc3ccc(N4CCC(CCO)CC4)cc3)c12 [Example 195, 2-(azepan-1-yl)-4-((4-(4-(2-hydroxyethyl)piperidin-1-yl)phenyl)amino) pyrimido[4,5-d]pyridazin-5(6H)-one]
17 | < 10 | < 10 | N#CCC1CCN(c2nc(Nc3ccc(N4CCC(CCO)CC4)cc3)c3c(=O)[nH]ncc3n2)CC1 [Example 196, 2-(1-(4-((4-(4-(2-hydroxyethyl)piperidin-1-yl)phenyl)amino)-5-oxo-5,6-dihydropyrimido[4,5-d]pyridazin-2-yl)piperidin-4-yl)acetonitrile]
18 | < 10 | < 10 | O=c1[nH]ncc2nc(N3CCCCCC3)nc(Nc3ccc(CCN4CCNCC4)cc3)c12 [Example 198, 2-(azepan-1-yl)-4-((4-(2-(piperazin-1-yl)ethyl)phenyl)amino)pyrimido[4,5-d]pyridazin-5(6H)-one]
19 | < 10 | < 10 | NCCOc1ccc(Nc2nc(N3CCCCCC3)nc3cn[nH]c(=O)c23)cc1 [Example 199, 4-((4-(2-aminoethoxy)phenyl)amino)-2-(azepan-1-yl)pyrimido[4,5-d]pyridazin-5(6H)-one]
20 | < 50 | < 50 | N#CCC1CCN(c2nc(Nc3ccc(N4CCC(CCCO)CC4)cc3)c3c(=O)[nH]ncc3n2)CC1 [Example 205, 2-(1-(4-((4-(4-(3-hydroxypropyl)piperidin-1-yl)phenyl)amino)-5-oxo-5,6-dihydropyrimido[4,5-d]pyridazin-2-yl)piperidin-4-yl)acetonitrile]
21 | < 50 | < 10 | N#CCN1CCN(c2ccc(Nc3nc(N4CCCCCC4)nc4cn[nH]c(=O)c34)cc2)CC1 [Example 206, 2-(4-(4-((2-(azepan-1-yl)-5-oxo-5,6-dihydropyrimido[4,5-d]pyridazin-4-yl)amino)phenyl)piperazin-1-yl) acetonitrile]
22 | < 10 | < 10 | N#CCC1CCN(c2nc(Nc3ccc(N4CCN(CC#N)CC4)cc3)c3c(=O)[nH]ncc3n2)CC1 [Example 207, 2-(1-(4-((4-(4-(cyanomethyl)piperazin-1-yl)phenyl)amino)-5-oxo-5,6-dihydropyrimido[4,5-d]pyridazin-2-yl)piperidin-4-yl)acetonitrile]
23 | < 50 | < 50 | O=c1[nH]ncc2nc(N3CCCCCC3)nc(Nc3ccc(N4CCC(O)CC4)nc3)c12 [Example 217, 2-(azepan-1-yl)-4-((6-(4-hydroxypiperidin-1-yl)pyridin-3-yl)amino)pyrimido[4,5-d]pyridazin-5(6H)-one]
24 | < 10 | < 10 | N#CCC1CCN(c2nc(Nc3ccc(N4CCN(CCC(=O)O)CC4)cc3)c3c(=O)[nH]ncc3n2)CC1 [Example 220, 3-(4-(4-((2-(4-(cyanomethyl)piperidin-1-yl)-5-oxo-5,6-dihydropyrimido[4,5-d]pyridazin-4-yl)amino)phenyl)piperazin-1-yl)propanoic acid]
25 | < 100 | < 50 | O=c1[nH]ncc2nc(N3CCCCCC3)nc(Nc3ccc(-c4nnn(CCO)n4)cc3)c12 [Example 222, 2-(azepan-1-yl)-4-((4-(2-(2-hydroxyethyl)-2H-tetrazol-5-yl)phenyl)amino) pyrimido[4,5-d]pyridazin-5(6H)-one]
26 | < 50 | < 10 | O=c1[nH]ncc2nc(N3CCCCCC3)nc(Nc3ccc(-c4nn[nH]n4)cc3)c12 [Example 227, 4-((4-(2H-tetrazol-5-yl)phenyl)amino)-2-(azepan-1-yl)pyrimido[4,5-d]pyridazin-5(6H)-one]
27 | < 50 | < 10 | CCN1CCN(c2ccc(Nc3nc(N4CCCCCC4)nc4cn[nH]c(=O)c34)cn2)CC1 [Example 229, 2-(azepan-1-yl)-4-((6-(4-ethylpiperazin-1-yl)pyridin-3-yl)amino)pyrimido[4,5-d]pyridazin-5(6H)-one]
28 | < 50 | < 50 | O=C(O)Cn1nnc(-c2ccc(Nc3nc(N4CCCCCC4)nc4cn[nH]c(=O)c34)cc2)n1 [Example 235, 2-(5-(4-((2-(azepan-1-yl)-5-oxo-5,6-dihydropyrimido[4,5-d]pyridazin-4-yl)amino)phenyl)-2H-tetrazol-2-yl)acetic acid]
29 | < 50 | < 10 | N#CCC(=O)N1CCN(c2ccc(Nc3nc(N4CCC(CC#N)CC4)nc4cn[nH]c(=O)c34)cn2)CC1 [Example 237, 3-(4-(5-((2-(4-(cyanomethyl)piperidin-1-yl)-5-oxo-5,6-dihydropyrimido[4,5-d]pyridazin-4-yl)amino)pyridin-2-yl)piperazin-1-yl)-3-oxopropanenitrile]

Source: patent US10183944B2 (Asana Biosciences, LLC, priority 2011, dated 2019)
